One test has as its target T1, rat B1R (Rattus norvegicus, UniProt P97583).
T1 construct: expressed in transfected cells; host or cells: CHO K1 cells
T1 sequence (P97583 1-337): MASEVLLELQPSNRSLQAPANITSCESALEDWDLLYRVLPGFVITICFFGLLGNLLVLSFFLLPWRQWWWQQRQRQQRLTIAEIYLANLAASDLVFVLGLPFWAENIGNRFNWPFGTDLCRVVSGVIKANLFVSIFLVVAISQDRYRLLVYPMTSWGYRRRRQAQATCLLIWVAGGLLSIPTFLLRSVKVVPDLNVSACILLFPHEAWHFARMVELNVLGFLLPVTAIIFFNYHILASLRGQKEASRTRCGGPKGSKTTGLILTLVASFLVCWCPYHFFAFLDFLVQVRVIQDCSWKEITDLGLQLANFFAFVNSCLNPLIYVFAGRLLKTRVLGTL
Description: FLIPR Ca2+ functional study on bradykinin receptor 1 (rB1R CHO K1 cells). It is filed as cell-based. As to conditions: % inhibition rat B1R at 10 μM. Here is the method:
The agonistic or antagonistic activity of substances can be quantified on the bradykinin receptor 1 (B1R) of the species human and rat using ectopically expressing cell lines (CHO K1 cells) and with the aid of a Ca^2+-sensitive dye (Fluo-4) using a fluorescent imaging plate reader (FLIPR). The indication in % activation is based on the Ca^2+ signal after addition of Lys-Des-Arg^9-bradykinin (0.5 nM) or Des-Arg^9-bradykinin (100 nM). Antagonists lead to suppression of the Ca^2+ influx after the addition of the agonist. % Inhibition compared with the maximum achievable inhibition is indicated.
The agonistic or antagonistic activity of substances can be determined on the bradykinin receptor 1 (B1R) of the species human and rat using the following assay. According to this assay, the Ca^2+ influx through the channel is quantified with the aid of a Ca^2+-sensitive dye (Fluo-4 type, Molecular Probes Europe BV, Leiden, Netherlands) using a Fluorescent Imaging Plate Reader (FLIPR, Molecular Devices, Sunnyvale, USA).
Chinese hamster ovary cells (CHO K1 cells) which have been stably transfected with the human B1R gene (hB1R cells) or with the B1R gene of the rat (rB1R cells) are used. For functional studies, the cells are plated out on black 96-well plates having a clear base (BD Biosciences, Heidelberg, Germany or Greiner, Frickenhausen, Germany) in a density of 20,000-35,000 cells/well. The cells are left overnight at 37° C. and with 5% CO2 in culture medium (hB1R cells: Nutrient Mixture Ham's F12, Gibco Invitrogen GmbH, Karlsruhe, Germany or DMEM, Sigma-Aldrich, Taufkirchen, Germany; rB1R cells: D-MEM/F12, Gibco Invitrogen GmbH, Karlsruhe, Germany), with 10 vol.% FBS (fetal bovine serum, Gibco Invitrogen GmbH, Karlsruhe, Germany or PAN Biotech GmbH, Aidenbach, Germany). On the following day, the cells are loaded for 60 minutes at 37° C. with 2.13 μM Fluo-4 (Molecular Probes Europe BV, Leiden, Netherlands) in HBSS buffer (Hank's buffered saline solution, Gibco Invitrogen GmbH, Karlsruhe, Germany) […] (Sigma-Aldrich, Taufkirchen, Germany) and 10 mM HEPES (Sigma-Aldrich, Taufkirchen, Germany). The plates are then washed twice with HBSS buffer, and HBSS buffer additionally containing 0.1% BSA (bovine serum albumin; Sigma-Aldrich, Taufkirchen, Germany), 5.6 mM glucose and 0.05% gelatin (Merck KGaA, Darmstadt, Germany) is added to the plates. After incubation for a further 20 minutes at room temperature, the plates are inserted into the FLIPR for Ca^2+ measurement. Alternatively, washing is carried out with buffer A (15 mM HEPES, 80 mM NaCl, 5 mM KCl, 1.2 mM CaCl2, 0.7 mM MgSO4, 2 g/l glucose, 2.5 mM probenecid) followed by loading with buffer A with added 2.5 μM Fluo-4 and 0.025% Pluronic F127 (Sigma-Aldrich, Taufkirchen, Germany). The cells are then washed twice with buffer A and incubated for 30 minutes at room temperature with buffer A additionally containing 0.05% BSA and 0.05% gelatin and are then inserted into the FLIPR for Ca^2+ measurement. The Ca^2+-dependent fluorescence is measured before and after the addition of substances (λex=488 nm, λem=540 nm). Quantification is carried out by measuring the highest fluorescence intensity (FC, fluorescence counts) over time.
The FLIPR protocol consists of two substance additions. Test substances (10 μM) are first pipetted onto the cells and the Ca^2+ influx is compared with the control (hB1R: Lys-Des-Arg^9-bradykinin>=50 nM; rB1R: Des-Arg^9-bradykinin 10 μM). This gives the activation in %, based on the Ca^2+ signal after addition of Lys-Des-Arg^9-bradykinin (>=50 nM) or Des-Arg^9-bradykinin (10 μM). After 10-20 minutes' incubation, Lys-Des-Arg^9-bradykinin (hB1R) or Des-Arg^9-bradykinin (rB1R) is applied in the concentration of the EC80, and the influx of Ca^2+ is likewise determined. Antagonists lead to suppression of the Ca^2+ influx. The % inhibition compared with the maximum achievable inhibition is calculated. […]
In the case of `COc1cc(C)c(S(=O)(=O)N(C)C(COc2nccc(N3CCN(C4CCN(C)CC4)CC3)n2)c2ccccc2)c(C)c1` (centres unmarked) [G_CC-059, 4-methoxy-N,2,6-trimethyl-N-[2-[[4-[4-(1-methyl-4-pipendinyl)-1-piperazinyl]-2-pyrimidinyl]oxy]-1-phenylethyl]benzenesulfonamide], the “% inh. (rat B1R) 10 μM” value came out at 98%.

Turning to `COc1cc(C)c(S(=O)(=O)N2CCCCC2COc2nccc(N3CCC(c4cccs4)(N(C)C)CC3)n2)c(C)c1` (centres unmarked) [G_CC-070, [1-[2-[[1-[(4-methoxy-2,6-dimethyl-phenyl)sulfonyl]-piperidin-2-yl]-methoxy]-pyrimidin-4-yl]-4-thiophen-2-yl-pipendin-4-yl]-dimethyl-amine], the “% inh. (rat B1R) 10 μM” value amounted to 95%.

Staying with this test, now noted: CHO-K1, % inhibition rat B1R at 10 μM, read-out: % inh. (rat B1R) 10 μM.
In the case of `COc1cc(C)c(S(=O)(=O)N(C)C(COc2nccc(N3CCC4(CCN(Cc5ccccc5)C4=O)CC3)n2)c2ccccc2)c(C)c1` (centres unmarked) [G_CC-061, N-[2-[[4-(3-benzyl-4-oxo-3,8-diazaspiro[4.5]decan-8-yl)-2-pyrimidinyl]oxy]-1-phenylethyl]-4-methoxy-N,2,6-trimethylbenzenesulfonamide], the inhibition at 10 µM was 81%.

Turning to `COc1cc(C)c(S(=O)(=O)N(C)C(COc2nccc(N3CCC(OCCN4CCCC4)(c4cccnc4)CC3)n2)c2ccccc2)c(C)c1` (centres unmarked) [G_CC-062, 4-methoxy-N,2,6-trimethyl-N-[1-phenyl-2-[[4-[4-(3-pyridyl)-4-(2-1-pyrrolidinylethoxy)-1-piperidinyl]-2-pyrimidinyl]oxy]ethyl]benzenesulfonamide], the inhibition at 10 µM worked out at 78%.

As to `COc1cc(C)c(S(=O)(=O)N(C)C(COc2nccc(N3CCN(C(=O)c4cccnc4)CC3)n2)c2ccccc2)c(C)c1` (centres unmarked) [G_CC-064, 4-methoxy-N,2,6-trimethyl-N-[2-[[4-[4-[oxo-(3-pyridyl)methyl]-1-piperazinyl]-2-pyrimidinyl]oxy]-1-phenylethyl]benzenesulfonamide], the inhibition at 10 µM was found to be 55%.

On to `COc1cc(C)c(S(=O)(=O)N(C)C(COc2nccc(N3CC4CC3CN4Cc3ccc(F)cc3)n2)c2ccccc2)c(C)c1` (centres unmarked) [G_CC-065, N-[2-[[4-[2-[(4-fluorophenyl)methyl]-2,5-diazabicyclo[2.2.1]heptan-5-yl]-2-pyrimidinyl]oxy]-1-phenylethyl]-4-methoxy-N,2,6-trimethylbenzenesulfonamide], for which the inhibition at 10 µM came out at 58%.

With `COc1cc(C)c(S(=O)(=O)N2CCCCC2COc2nccc(N3CCC(O)(c4cccnc4)CC3)n2)c(C)c1` (centres unmarked) [G_CC-067, 1-[2-[[1-(4-methoxy-2,6-dimethylphenyl)sulfonyl-2-piperidinyl]methoxy]-4-pyrimidinyl]-4-(3-pyridyl)-4-piperidinol], the inhibition at 10 µM is 104%.

Consider `COc1cc(C)c(S(=O)(=O)N(C)C(COc2nccc(N3CCC4(CCN(Cc5ccccc5)C4)C3)n2)c2ccccc2)c(C)c1` (centres unmarked) [G_CC-068, N-[2-[[4-(3-benzyl-3,7-diazaspiro[4.4]nonan-7-yl)-2-pyrimidinyl]oxy]-1-phenylethyl]-4-methoxy-N,2,6-trimethylbenzenesulfonamide], for which the inhibition at 10 µM was 68%.

As to `CCCCC1(N(C)C)CCN(c2ccnc(OCC3CCCCN3S(=O)(=O)c3c(C)cc(OC)cc3C)n2)CC1` (centres unmarked) [G_CC-069, [4-butyl-1-[2-[[1-[(4-methoxy-2,6-dimethyl-phenyl)sulfonyl]-piperidin-2-yl]-methoxy]-pyrimidin-4-yl]-piperidin-4-yl]-dimethyl-amine], the inhibition at 10 µM stood at 102%.

As to `COc1cc(C)c(S(=O)(=O)N2CCCCC2COc2nccc(N(C)CCN3CCC(c4ccccc4)(N4CCCC4)CC3)n2)c(C)c1` (centres unmarked) [G_CC-073, [2-[[1-[(4-methoxy-2,6-dimethyl-phenyl)sulfonyl]-piperidin-2-yl]-methoxy]-pyrimidin-4-yl]-methyl-[2-(4-phenyl-4-pyrrolidin-1-yl-piperidin-1-yl)-ethyl]-amine], the inhibition at 10 µM came out at 101%.

On to `CCCCC1(N(C)C)CCN(CCN(C)c2ccnc(OCC3CCCCN3S(=O)(=O)c3c(C)cc(OC)cc3C)n2)CC1` (centres unmarked) [G_CC-074, 2-(4-butyl-4-dimethylamino-piperidin-1-yl)-ethyl-[2-[[1-[(4-methoxy-2,6-dimethyl-phenyl)sulfonyl]-piperidin-2-yl]-methoxy]-pyrimidin-4-yl]-methyl-amine], for which the inhibition at 10 µM was 102%.

Take `COc1cc(C)c(S(=O)(=O)N2CCC[C@H]2COc2nccc(N(C)CCCN3CCC(c4ccccc4)(N(C)C)CC3)n2)c(C)c1` [G_CC-075, 3-(4-dimethylamino-4-phenyl-piperidin-1-yl)-propyl-[2-[[(2S)-1-[(4-methoxy-2,6-dimethyl-phenyl)sulfonyl]-pyrrolidin-2-yl]-methoxy]-pyrimidin-4-yl]-methyl-amine]: the inhibition at 10 µM is 104%.

Regarding `COc1cc(C)c(S(=O)(=O)N2c3ccccc3C[C@H]2COc2nccc(N(C)CCCN3CCC(c4ccccc4)(N(C)C)CC3)n2)c(C)c1` [G_CC-076, 3-(4-dimethylamino-4-phenyl-piperidin-1-yl)-propyl-[2-[[(2S)-1-[(4-methoxy-2,6-dimethyl-phenyl)sulfonyl]-2,3-dihydro-1H-indol-2-yl]-methoxy]-pyrimidin-4-yl]-methyl-amine], the inhibition at 10 µM came to 105%.

Regarding `COc1cc(C)c(S(=O)(=O)N2CC(Oc3nccc(N4CCN(CC5CCN(C)CC5)CC4)n3)C2)c(C)c1` [G_CC-077, 2-[1-[(4-methoxy-2,6-dimethyl-phenyl)sulfonyl]-azetidin-3-yl]oxy-4-[4-[(1-methyl-piperidin-4-yl)methyl]-piperazin-1-yl]-pyrimidine], the inhibition at 10 µM is 92%.

With `COc1cc(C)c(S(=O)(=O)N2CCCCC2COc2nccc(N3CCC(Oc4ccccn4)CC3)n2)c(C)c1` (centres unmarked) [G_CC-078, 2-[[1-[(4-methoxy-2,6-dimethyl-phenyl)sulfonyl]-piperidin-2-yl]-methoxy]-4-(4-pyridin-2-yloxy-piperidin-1-yl)-pyrimidine], the inhibition at 10 µM is 98%.

For `COc1cc(C)c(S(=O)(=O)N2CCCCC2COc2nccc(N3CCC(Oc4cnccn4)CC3)n2)c(C)c1` (centres unmarked) [G_CC-079, 2-[[1-[(4-methoxy-2,6-dimethyl-phenyl)sulfonyl]-piperidin-2-yl]-methoxy]-4-(4-pyrazin-2-yloxy-piperidin-1-yl)-pyrimidine], the inhibition at 10 µM stood at 98%.

Turning to `COc1cc(C)c(S(=O)(=O)N2CCCCC2COc2nccc(N3CCC(CCCN4CCCC4)(c4cccnc4)CC3)n2)c(C)c1` (centres unmarked) [G_CC-080, 2-[[1-[(4-methoxy-2,6-dimethyl-phenyl)sulfonyl]-piperidin-2-yl]-methoxy]-4-[4-pyridin-3-yl-4-(3-pyrrolidin-1-yl-propyl)-piperidin-1-yl]-pyrimidine], the inhibition at 10 µM was 103%.
